From paper PMC9503535, “Inositol Derivatives with Anti-Inflammatory Activity from Leaves of Solanum capsicoides Allioni” (Molecules, 2022)
Read-outs that look alike come from different tables or passages of the source.

Experiments:
[1] = system: NO production in LPS-stimulated BV2 cells; experiment: Inhibition of NO production in LPS-stimulated BV2 cells (Griess reaction); assay type: cell-based; settings: read-out: Inhibitory effects on NO in LPS-induced BV-2, IC50
Protocol: BV2 microglial cells were cultured in DMEM containing 10% fetal bovine serum, 100 IU/mL penicillin, and 100 μg/mL streptomycin at 37 ℃ with 5% CO2. Then, the cells were placed in 96-well microplates and treated with different compounds at 1–8 concentrations (5, 10, 30, 50, 100, 200 μM) for 1 h. Next, the cells were treated with 1 μg/mL LPS for 24 h to detect the NO (nitric oxide) levels in culture supernatants. After the Griess reaction (incubated at 37 ℃ with 5% CO2 for 0.5 h), the absorbance of cells was measured with a microplate reader (BioTek Company, Winooski, VT, USA) at […], repeated three times, and its IC50 value was calculated.

[2] = Cytotoxicity on BV2 cells, CCK8 method; assay type: cell-based; settings: mouse, BV2 microglial cells, CCK8, 24 h treatment, 5-200 μM, read-out: Cytotoxic activities IC50
Protocol: The cytotoxicity assay was performed with a modified CCK8 method. First, BV2 microglial cells were cultured with 96-well microplates (10^4 cells/well in […] medium) for 24 h. Then, the cells were treated with different concentrations (5, 10, 30, 50, 100, 200 μM) of compounds. After the cells were incubated for 24 h, added 10 μL CCK8 solution to each well and incubated for 2 h in a 5% CO2 humidifier at 37 ℃. The absorbance was recorded at 450 nm with a microplate reader (BioTek Company, Winooski, VT, USA), repeating three times, and its IC50 value was calculated.

[3] = Mus musculus, BV-2, compound 1 h then 1 μg/mL LPS 24 h

Row | SMILES | IC50 [1, 3] | IC50 ([1]; compound 1 h then 1 μg/mL LPS 24 h) | IC50 at 24 h [2]
1 | CCC(C)C(=O)O[C@@H]1[C@H](OC(=O)C(C)C)[C@@H](OC(=O)C(C)C)[C@H](O)[C@@H](O)[C@@H]1OC(C)=O (relative stereo) [Compound 2, myoinositol-1,2-isobutyryloxy-3-(2-methylbutyrate)-4-acetate] | 31.7 ± 2.71 µM |  | > 100 µM
2 | CCC(C)C(=O)O[C@@H]1[C@H](OC(C)=O)[C@@H](OC(=O)C(C)CC)[C@H](O)[C@@H](O)[C@@H]1OC(=O)C(C)C (relative stereo) [Compound 1, myoinositol-1,3-(2-methylbutyrate)-2-acetate-4-isobutyryloxy] | 24.3 ± 1.82 µM |  | > 100 µM
3 | CCC(C)C(=O)O[C@H]1[C@@H](OC(=O)C(C)CC)[C@H](OC(=O)C(C)CC)[C@@H](O)[C@H](OC(=O)C(C)C)[C@H]1OC(C)=O (relative stereo) [Compound 4, myoinositol-1,2,3-(2-methylbutyrate)-4-acetate-5-isobutyryloxy] | > 100 µM |  | > 100 µM
4 | CCC(C)C(=O)O[C@H]1[C@@H](OC(=O)C(C)CC)[C@H](OC(C)=O)[C@@H](O)[C@H](OC(=O)C(C)CC)[C@H]1OC(C)=O (relative stereo) [Compound 3, myoinositol-1,4-acetate-2,3,5-(2-methylbutyrate)] | > 100 µM |  | > 100 µM

More lines, main results first:

Row | IC50 [1, 3] | IC50 ([1]; compound 1 h then 1 μg/mL LPS 24 h) | SMILES | IC50 at 24 h [2]
5 |  | 1.67 ± 0.24 µM | CNC(=N)NCCC[C@H](N)C(=O)O [NMMA, reference compound] | 
6 | 11.2 ± 0.14 µM |  | CCC(C)C(=O)O[C@@H]1[C@@H](O)[C@H](O)[C@H](OC(=O)C(C)CC)[C@H](OC(=O)C(C)CC)[C@H]1O (relative stereo) [Compound 5, myoinositol-2,3,6-(2-methylbutyrate)] | > 100 µM
7 | 31 ± 0.92 µM |  | CCC(C)C(=O)O[C@@H]1[C@@H](OC(=O)C(C)CC)[C@H](O)[C@@H](O)[C@H](O)[C@@H]1OC(=O)C(C)CC (relative stereo) [Compound 8, myoinositol-2,3,6-(2-methylbutyrate)] | > 100 µM
8 | 23.3 ± 0.74 µM |  | CCC(C)C(=O)O[C@@H]1[C@H](OC(=O)C(C)CC)[C@@H](O)[C@H](O)[C@@H](O)[C@@H]1OC(C)=O (relative stereo) [Compound 6, myoinositol-2,3-(2-methylbutyrate)-4-acetate] | > 100 µM
9 | 14.5 ± 1.22 µM |  | CCC(C)C(=O)O[C@@H]1[C@H](O)[C@@H](O)[C@H](O)[C@@H](OC(=O)C(C)CC)[C@@H]1OC(C)=O (relative stereo) [Compound 7, myoinositol-1,3-(2-methylbutyrate)-2-acetate] | > 100 µM
